Data on 16 molecules can be found in paper PMC4267622, “Pin1-mediated Sp1 phosphorylation by CDK1 increases Sp1 stability and decreases its DNA-binding activity during mitosis” (Nucleic Acids Research, 2014).

Data set [1] relates to CDK1/cyclin B1. In words: In vitro CDK1/cyclin B1 kinase assay. It counts as biochemical. As to conditions: 15 min; for phosphorylation by CDK1 (as substrate): 1 μg Sp1 protein, 50 ng CDK1/cyclin B1, 30°C; for effect on CDK1-mediated Sp1 phosphorylation: substrate GST-Sp1 (619–785), [γ-^32P] ATP, 30°C. As to the method:
For the in vitro phosphorylation analysis, the GST-Sp1(619-785), GST-Sp1(619-785)-T739A, GST-Sp1(619-785)-T739D, GST-Sp1(619-785)-P6, GST-Sp1(619-785)-Z12, GST-Sp1(619-715) or GST-Sp1(619-740) were purified from Escherichia coli BL21 (DE3). These different Sp1 proteins and active CDK1/cyclin B1 (New England Biolabs, Beverly, MA) were used to examine Sp1 phosphorylation in vitro. Each reaction (20 μl) contained 1 μg of purified Sp1, 50 ng of active CDK1/cyclin B1, 2 μCi of [γ-^32P] ATP (GE Healthcare Life Sciences), 1 mM ATP (New England Biolabs) and […] of 10× kinase buffer containing 500 mM HEPES pH 7.4, 10 mM MgCl2, 1 mM EGTA and 1 mM dithiothreitol. The phosphorylation reactions were incubated at 30°C for 15 min. After the incubation, one-half of the reaction was added to 10 μl of 2×electrophoresis sample buffer, which was then heated to 95°C for 5 min. Proteins in the mixtures were immediately separated using SDS-polyacrylamide gel electrophoresis (PAGE).

Data set [2] deals with Sp1-binding probe of p21^WAF1/CIP1 promoter. In words: DNA affinity precipitation assay (DAPA). As to conditions: 4°C, 1 h. The procedure: Cell lysate incubated with 1 μg of binding probes in 500 μl binding of buffer (2 mM MgCl2, 60 mM KCl, 20 mM Tris-HCl pH 7.8, 5% glycerol, 0.5 mM EDTA and 0.02% NP-40). After incubation for 1 h at 4°C, the mixture was incubated with 30 μl of streptavidin-agarose beads (GE Healthcare Life Sciences) for 1 h at 4°C. The mixture was washed three times by binding buffer. The proteins in the beads were eluted by 2X sample buffer and analysed by SDS-PAGE and immunoblotting. The Sp1-binding probe 5′-[…]-3′, localized from −82 to −50 bp within the promoter of p21^WAF1/CIP1, was biotinylated at 5′ termini and then annealed with complementary strands.

In data set [3] the test system is mitotic Sp1. In words: GST-Pin1 pull-down with HeLa lysates. The conditions noted are these: mitotic HeLa lysate; for interaction with phospho-Sp1(T739): antibody against phospho-Sp1 (T739). It counts as binding. As to the method: (§1) The mixture was incubated with shaking for 1 h at 4°C. The beads were washed three times in NETN buffer and added to the interphase or mitotic cell extract. The reaction mixture was incubated on ice for 1 h. The beads were then washed in NETN buffer. Proteins were eluted by sample buffer and separated by SDS- PAGE.

For data set [4], the system named is JNK1. The data set is described as follows: In vitro kinase assay with JNK1. It counts as biochemical. As to conditions: substrate GST-Sp1(619-785).
Data set [5] concerns the target Pin1 (UniProt Q13526). In words: isothermal titration calorimetry. The conditions noted are these: reference: Thr739-Sp1 peptide (unphosphorylated); sites T739. (In general: ITC needs no label: the signal is the heat of the interaction.)
Data set [6] deals with Pin1 (UniProt Q13526). The data set is described as follows: co-IP with anti-Pin1, Sp1 blot. The conditions noted are these: reference: GFP-Sp1 wild type; sites T739.
Data set [7] concerns HeLa cells. In words: Flow cytometry with PI staining (cell cycle). The data set is classed as cell-based. The conditions noted are these: nocodazole 16 h. As to the method: The cells washed by cold PBS and then fixed in 70% alcohol or 4% paraformaldehyde at 4°C for 2 h. After fixation, the cells washed by cold PBS and treated with 0.1% TritonX-100, 10μg/ml RNase and 50 μg/ml propidium iodide for 1 h. The cells were analysed by flow cytometer (Cell Lab Quanta™ SC; Beckman Coulter or FACSCalibur; BD Biosciences).
In general terms: In flow cytometry, cells or beads pass a laser one at a time.

The subject of data set [8] is Pin1. The data set is described as follows: Pin1 interaction of Sp1 mutants (anti-Pin1 immunoprecipitation / pull-down). The conditions noted are these: mitotic HeLa lysates / pull-down. It counts as binding. The procedure: Cell lysates were prepared by using mRIPA buffer (50 mM Tris-HCl, pH 7.8, 150 mM NaCl, 5 mM ethylenediaminetetraacetic acid (EDTA), 0.1% Triton-X100, 0.05% NP-40). The lysates were incubated with anti-Sp1 (1:500), anti-CDK1 (1:200), anti-Pin1 (1:250), anti-HA tag (1:250), or anti-GFP tag (1:200) antibodies at 4°C for 1 h. After 1 h incubation, the mixture was incubated with Protein A or G Sepharose agarose beads at 4°C for 1 h. The beads were collected and washed three times by mRIPA buffer. The beads were added 2X electrophoresis sample buffer and analysed by immunoblotting.
as §1

Data set [9] relates to Pin1. In words: Co-localization of Sp1 and Pin1 by immunofluorescence in sub-mitotic stages. The data set is classed as cell-based. As to conditions: HeLa. The procedure:
The cells were fixed with 4% paraformaldehyde (Sigma-Aldrich) in PBS according to a method described previously ([3]). Immunostaining was conducted with primary antibodies such as anti-Sp1, anti-GFP tag (Santa Cruz Biotechnology, Santa Cruz, CA), or anti-Pin1 (Calbiochem, San Diego, CA) antibodies. The cells were then treated with Alexa Fluor 488-conjugated goat anti-mouse or rabbit immunoglobulin G (IgG) and Alexa Fluor 568-conjugated goat anti-mouse or rabbit IgG polyclonal antibodies (Jackson ImmunoResearch Laboratories Inc., West Grove, PA). Finally, the cells were mounted in 90% glycerol containing 4'-6-diamidino-2-phenylindole (DAPI) (Invitrogen), and examined using a confocal laser-scanning microscope (FluoView^TM FV 1000; Olympus, Melville, NY) or immunofluorescence microscope (Personal DV Applied Precision, Issaquah, WA). The images were analysed with softWoRx software (Applied Precision Inc.).

For data set [10], the target named is Pin1 (purified, used in ITC) (UniProt Q13526). In words: ITC; Sp1 peptide (900 mM [sic]) titrated into Pin1 (60 mM [sic]) in the cell; 10 mM HEPES pH 7.5, 100 mM NaCl, 1 mM DTT; 25°C; MicroCal iTC200.
In data set [11] the target is GST-Sp1(619-785)-T739D (UniProt P08047 619-785, T739D). In words: DAPA (streptavidin pull-down); no significant difference from GST-Sp1(619-785); DAPA: 1 ug probe in 500 ul 20 mM Tris-HCl pH 7.8, 60 mM KCl, 2 mM MgCl2, 0.5 mM EDTA, 5% glycerol, 0.02% NP-40; 1 h at 4 C, then streptavidin-agarose 1 h at 4 C. As to conditions: protein: recombinant; tags: GST; label: 5' biotin on S1 strand; blunt.

The target in data set [12] is GST-Sp1(619-785) (UniProt P08047 619-785). The data set is described as follows: DAPA (streptavidin pull-down); DAPA: 1 ug probe in 500 ul 20 mM Tris-HCl pH 7.8, 60 mM KCl, 2 mM MgCl2, 0.5 mM EDTA, 5% glycerol, 0.02% NP-40; 1 h at 4 C, then streptavidin-agarose 1 h at 4 C. The conditions noted are these: protein: recombinant; tags: GST; label: 5' biotin on S1 strand; blunt.

Regarding “GST-Sp1 (619–715): truncated Sp1, amino acids 619–715”, in [1], the “phosphorylation by CDK1 (as substrate)” value is on record as “No signal was detected”.

As to “GST-Sp1 (619–740): truncated Sp1, C-terminus (741–785) ablated”, in data set [1], the “phosphorylation by CDK1 (as substrate)” value is listed as “an increased phosphorylation signal was obtained”.

Turning to “GST-Sp1 (619–785)-T739A: T739A mutant of GST-Sp1 (619–785)”, the “phosphorylation by CDK1 (as substrate)” value in [1] was “No signal was detected”.

For “GST-Sp1 (619–785)-T739D: mimic phosphorylation form of GST-Sp1 (619–785)”, in [2] (purified GST-Sp1 proteins, four independent experiments), the DNA-binding signal entry is given as “No significant difference in the DNA-binding signal”.

With “GST-Sp1 (619–785): truncated Sp1, wild-type C-terminal region”, in [1], the “phosphorylation by CDK1 (as substrate)” value is reported as “phosphorylated by CDK1, albeit to a lesser extent”.

In the case of “GST-WW: recognition motif (WW domain) of Pin1”, the “interaction with phospho-Sp1(T739)” value in [3] is given as “interacted with phospho-Sp1(T739)”. Further, the “effect on CDK1-mediated Sp1 phosphorylation” value in data set [1] is “but not Pin1-W34A and Pin1-WW, increased the signal”.

As to “Pin1-W34A: Pin1 mutated in the recognition domain”, in data set [3], the “interaction with mitotic Sp1” value is on record as “but not Pin1-W34A, interacted with mitotic Sp1”. Besides, the “effect on CDK1-mediated Sp1 phosphorylation” value in [1] was “but not Pin1-W34A and Pin1-WW, increased the signal”.

As to “Pin1: recombinant wild-type Pin1, peptidyl-prolyl isomerase”, in data set [3], the “interaction with mitotic Sp1” value is listed as “interacted with mitotic Sp1” and the “interaction with phospho-Sp1(T739)” value was “interacted with phospho-Sp1(T739)”. Further, in [4], the “effect on JNK1 phosphorylation of Sp1” value is reported as “this phosphorylation remained unaffected”. Moreover, the “effect on CDK1-mediated Sp1 phosphorylation” value in data set [1] is reported as “increased the signal of CDK1-mediated Sp1 phosphorylation in a dose dependent manner”.

On to “Sp1 735-745 (from UniProt P08047) Thr739(p)-Sp1 peptide”, for which the other: Ka in data set [5] turned out to be 7.4 M⁻¹.

With Sp1 (from UniProt P08047) GFP-Sp1 T739A, the “binding against the reference” value in data set [6] is given as “weaker”.

In the case of “Sp1-4A: Sp1 mutant S720A, T723A, T737A and T739A”, in [2] (mitotic extract of HeLa cells, three independent experiments), the “DNA-binding activity to the p21^CIP/WAP promoter” value is given as “increased its DNA-binding activity to the p21^CIP/WAP promoter”. Besides, the cells entered mitosis in data set [7] was 62%.

With “Sp1-T739A: phosphorylation site mutated Sp1”, the “interaction with Pin1” value in [8] is on record as “decreased interaction with Pin1”.

Turning to Sp1-T739D: mimic phosphorylated Sp1, the “interaction with Pin1” value in data set [8] is reported as “increased interaction with GST-Pin1”.

With “Sp1: transcription factor Sp1; endogenous or GFP-Sp1-WT expressed in HeLa cells”, the “Sp1 interaction/co-localization with Pin1” value in data set [9] (anaphase (within 20–60 min of nocodazole release)) was found to be 93%; in [9] (metaphase (within 20–60 min of nocodazole release)), 91.4%; in data set [9] (prophase (within 20 min of nocodazole release)), 81.3%.

In general, Kd refers to the concentration at which binding is half-saturated. Read a high Kd as weaker binding. One may read the stoichiometry N as the number of molecules, sites or subunits per partner or assembly. In data set [10], “Thr739(p)-Sp1 peptide (from UniProt P08047 735-745)” had a Ka of 7400 M⁻¹, a Kd of 50 µM, a dH of -6.8 kcal/mol and a stoichiometry N of 0.93.

B1: p21WAF1/CIP1 promoter Sp1 probe (-82 to -50) (dsDNA)
DNA 1: CCCGCCTCCTTGAGGCGGGCCCGGGCGGGGCGG
DNA 2: CCGCCCCGCCCGGGCCCGCCTCAAGGAGGCGGG
As for B1, the binding result in data set [11] and in [12] was “binds” throughout.
